The record followed here is BindingDB's records for PubMed 7965765 (University of Cincinnati, 1994).

The target of the assay is T1, Thromboxane A2 receptor (Homo sapiens, UniProt P21731).
T1 sequence (P21731 whole entry): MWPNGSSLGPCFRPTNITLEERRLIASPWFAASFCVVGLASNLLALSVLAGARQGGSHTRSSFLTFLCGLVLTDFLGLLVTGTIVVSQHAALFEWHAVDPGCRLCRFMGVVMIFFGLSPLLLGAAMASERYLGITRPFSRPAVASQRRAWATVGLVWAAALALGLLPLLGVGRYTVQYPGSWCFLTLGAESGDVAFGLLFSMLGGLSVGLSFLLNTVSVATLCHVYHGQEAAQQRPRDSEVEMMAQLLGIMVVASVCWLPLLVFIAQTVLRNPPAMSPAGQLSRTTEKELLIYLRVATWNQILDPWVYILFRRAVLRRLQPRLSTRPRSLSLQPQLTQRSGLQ

A word on the Ki: it is the dissociation constant of the complex between target and ligand, obtained from inhibition or displacement. Higher therefore signals lower affinity.

Several values for one entry are separate records, joined by “and”; a condition that tells them apart may be missing. Equal entries are not always repeated.

Consider `O=C(O)CCC/C=C\C[C@@H]1[C@@H](/C=C/[C@@H](O)COc2ccc(I)cc2)[C@H]2CC[C@@H]1O2` [CAS_128719-90-4], for which the Ki is 3.7 nM and 1.4 nM.

Consider `CCCCCC(O)C=CC1C2COC(C2)C1CC=CCCCC(=O)O` (centres undefined) [NSC_114865], for which the Ki is 64 nM and 44 nM and 38 nM.

Regarding `CC1(C)C2CC(NCC(O)Cc3ccc(O)c(I)c3)C(CC=CCCCC(=O)O)C1C2` (centres undefined) [NSC_122979], the Ki is 117 nM and 400 nM and 121 nM.

Turning to `CCCCC[C@H](O)/C=C/C1[C@@H](C/C=C\CCCC(=O)O)[C@H]2CO[C@@H]1C2` (some centres undefined) [U46619], the Ki was 77 nM and 82 nM and 50 nM.
